≈ marks a conversion by molar mass, not a printed value.
The molecules below were run on HCT-116 (assay: Cytotoxicity against human HCT116 cells).
Format: functional, cell-based

In order of falling IC50:
1. CC(C)[C@@H]1NC(=O)[C@H]2N=C(O[C@@H]2C)[C@H](C(C)C)NC(=O)c2csc(n2)[C@H](C(C)C)NC(=O)[C@@H]2COC1=N2 [BISTRATAMIDE F]  28 µg/mL (≈ 52.6 µM)
2. CC(C)[C@@H]1NC(=O)c2csc(n2)[C@H](C(C)C)NC(=O)c2coc(n2)[C@H](C(C)C)NC(=O)[C@H]([C@@H](C)O)NC1=O [BISTRATAMIDE I]  9 µg/mL (≈ 16.4 µM)
3. CC(C)[C@@H]1NC(=O)c2csc(n2)[C@H](C(C)C)NC(=O)c2csc(n2)[C@H](C(C)C)NC(=O)[C@H]2N=C1O[C@@H]2C [BISTRATAMIDE E]  7.9 µg/mL (≈ 14.4 µM)
4. Cc1oc2nc1C(=O)N[C@@H](C(C)C)c1nc(co1)C(=O)N[C@@H](C(C)C)c1nc(cs1)C(=O)N[C@H]2C(C)C [BISTRATAMIDE G]  5 µg/mL (≈ 9.46 µM)
5. Cc1oc2nc1C(=O)N[C@@H](C(C)C)c1nc(cs1)C(=O)N[C@@H](C(C)C)c1nc(cs1)C(=O)N[C@H]2C(C)C [BISTRATAMIDE H]  1.7 µg/mL (≈ 3.12 µM)
6. CC(C)[C@@H]1NC(=O)c2csc(n2)[C@H](C(C)C)NC(=O)c2csc(n2)[C@H](C(C)C)NC(=O)[C@H]([C@@H](C)O)NC1=O [BISTRATAMIDE J]  1 µg/mL (≈ 1.77 µM)

— ChEMBL document CHEMBL1159341, “Bistratamides E-J, modified cyclic hexapeptides from the Philippines ascidian Lissoclinum bistratum” (J Nat Prod, 2003)
